Here are results for three compounds from US10151698B2, “Selection by compartmentalized screening” (Medical Research Council, priority 2003, dated 2018).

Data set [1] in a line: Compartmentalisation of small molecules in water-in-fluorocarbon emulsions (epifluorescence microscopy). It is filed as physicochemical. Particulars: water-in-perfluorooctyl bromide emulsions mixed by vortexing; 24 hours after mixing. The method, then: FIG. 3. Compartmentalisation of small molecules in water-in-fluorocarbon emulsions. Water-in-perfluorooctyl bromide emulsions were made containing texas red (1 mM) and calcein (1 mM) in the aqueous phase by homogenisation as described in example 9. The two emulsions were mixed by vortexing and imaged by epifluorescence microscopy after 24 hours. No exchange of texas-red (red fluorescence) and calcein (green fluorescence) between microdroplets could be observed.
Water-in-fluorocarbon emulsions containing 95% (v/v) perfluorooctyl bromide, 5% (v/v) phosphate buffered saline containing the molecule of interest in solution, and 2% (w/v) C8F17C11H22OP(O)[N(CH2CH2)2O]2 (F8H11DMP) as surfactant were formed essentially as (Sadtler et al., 1996) by extrusion (15 times) through 14 μm filters (Osmonics) or by homogenising for 5 min at 25,000 r.p.m. using an Ultra-Turrax T8 Homogenizer (IKA) with a 5 mm dispersing tool. Emulsions were made containing a series of small fluorescent molecules dissolved in the aqueous phase at concentrations from […] to 2 mM. These molecules, including calcein, texas red, fluorescein, coumarin 102, 7-hydroxycoumarin-3-carboxylic acid and 7-diethylamino-4-methyl coumarin (coumarin 1), had molecular weights from 203 to 625 Da and Log P values—calculated using SRC's Log Kow/KowWin Program (Meylan and Howard, 1995)—ranging from −0.49 to 4.09. […]

Another data set concerns the target T1, PTPIB (Homo sapiens, UniProt P18031).
T1 sequence (P18031 1-435): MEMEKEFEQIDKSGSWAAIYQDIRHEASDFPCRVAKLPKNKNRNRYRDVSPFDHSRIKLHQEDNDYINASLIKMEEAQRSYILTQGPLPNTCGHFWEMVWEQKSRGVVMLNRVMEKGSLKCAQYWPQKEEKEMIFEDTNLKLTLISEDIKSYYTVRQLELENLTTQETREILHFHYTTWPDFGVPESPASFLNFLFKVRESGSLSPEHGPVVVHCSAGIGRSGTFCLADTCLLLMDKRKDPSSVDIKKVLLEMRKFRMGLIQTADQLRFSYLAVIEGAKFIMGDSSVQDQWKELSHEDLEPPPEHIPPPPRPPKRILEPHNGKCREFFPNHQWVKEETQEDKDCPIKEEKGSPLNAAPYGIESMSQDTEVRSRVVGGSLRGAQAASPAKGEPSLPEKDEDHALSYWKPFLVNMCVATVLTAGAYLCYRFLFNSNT
Particulars: Johnson et al., 2002; cited from earlier work.

The target of data set [2] is T2, human recombinant PTPIB, residues 1-322 (Homo sapiens, UniProt P18031).
T2 construct: human recombinant PTPIB, residues 1-322; purchased Biomol Research Laboratories, Inc
T2 sequence (P18031 1-322): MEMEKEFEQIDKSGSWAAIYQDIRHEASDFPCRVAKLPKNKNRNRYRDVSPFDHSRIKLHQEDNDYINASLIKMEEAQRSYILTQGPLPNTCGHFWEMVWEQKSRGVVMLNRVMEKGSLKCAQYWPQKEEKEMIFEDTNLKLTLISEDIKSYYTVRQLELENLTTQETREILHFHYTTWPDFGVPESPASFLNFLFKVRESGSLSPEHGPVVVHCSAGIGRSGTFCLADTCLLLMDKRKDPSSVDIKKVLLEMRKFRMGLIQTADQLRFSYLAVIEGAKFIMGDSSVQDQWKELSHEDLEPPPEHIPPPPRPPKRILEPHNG
Put plainly: Screening for PTPIB inhibitors using microcapsules in microfluidic systems (DiFMUP, epifluorescence microscope). It is filed as biochemical. Conditions: Example 5; 100 μM compound solution; PTPIB 50 mU/ml; fused microcapsules run up to 2 min. How it is done: Microchannels are fabricated with rectangular cross-sections using rapid prototyping in poly(dimethylsiloxane) (PDMS) (McDonald and Whitesides, 2002) and rendered hydrophobic as (Song and Ismagilov, 2003). Syringe pumps were used to drive flows (Harvard Apparatus PHD 2000 Infusion pumps). For aqueous solutions, 50 μl Hamilton Gastight syringes (1700 series, TLL) with removeable needles of 27-gaugeare used with 30-gauge Teflon tubing (Weico Wire and Cable). For the carrier fluid, 1 ml Hamilton Gastight syringes (1700 series, TLL) are used with 30-gauge Teflon needles with one hub from Hamilton (Song and Ismagilov, 2003). The carrier fluid is 9% (v/v) C6F11C2H4OH in perfluorodecaline (PFD) (Song et al., 2003). All water-soluble reagents were dissolved in (25 mM HEPES, pH 7.4, 125 mM NaCl, 1 mM EDTA), a buffer compatible with PTPIB activity.
These three steams are continuously injected into a flow of water immiscible fluorocarbon carrier fluid (9% (v/v) C6FπC2H OH in PFD). Inlet channels for the aqueous solutions are […] wide and channel for PFD is 28 μm wide. […]
The channel immediately downstream of the point of droplet formation is winding with a peak to peak distance of 50 μm for a distance of 1 mm. […] Fluorescence of the microcapsules due to production of DiFMU (excitation/emmission maxima 358/452 nm; blue fluorescence) is measured using an epifluorescence microscope.

Data set [3] addresses T2, human recombinant PTPIB, residues 1-322. Put plainly: Screening for PTPIB inhibitors in water-in-oil emulsion microcapsules with fluorogenic substrate DiFMUP, multi-colour flow cytometry. It is filed as biochemical. Conditions: 100 μM compound, 37° C. for 30 min. How it is done: The syringes are fitted into the openings on both sides of the filter holder of the extruder. The compound mix is forced through the filter holder into the alternate syringe containing the decane/surfactant mix and directly forced back into the original syringe to complete one round of extrusion. In total, 7.5 rounds of extrusion are completed. The filled syringe is removed from the extruder and emptied into a 1.7 ml Axygen tube (# MCT-175-C, Axygen Scientific, Inc., Union City, Calif., USA).
The two emulsions are mixed by vortexing in ratios varying from 1:1000 to 1:1 (compound 2 emulsion: hydrocinnamic acid emulsion) and incubated at 37° C. for 30 min. Inhibitors reduce the amount of non-fluorescent substrate (DiFMUP) converted to the dephosphorylated product (DiFMU; excitation/emmission maxima 358/452 nm; blue fluorescence). […]
The double emulsions are then analysed by multi-colour flow cytometery using a MoFlo (Cytomation) flow cytometer. […]
50 μl of each of the compound mixtures is added sequentially to a solution of 1% (w/v) Span 60 and 1% (w/v) cholesterol in decane, made and held at 37° C. as example 1, whilst homogenising at 25,000 r.p.m. using an Ultra-Turrax T8 Homogenizer (IKA) with a 5 mm dispersing tool. […] Inhibitors reduce the amount of non-fluorescent substrate (DiFMUP) converted to the dephosphorylated product (DiFMU; excitation/emmission maxima 358/452 nm; blue fluorescence). […]
(A flow cytometer gives signals particle by particle.)

As to texas red, the exchange between microdroplets/compartments entry in data set [1] was “No exchange”.
With `O=C(O)CCc1ccccc1` [hydrocinnamic acid], the “PTPIB inhibitor or not” value at PTPIB is given as “not a PTPIB inhibitor”. Besides, the “fluorescence of the microcapsules due to production of DiFMU” value in data set [2] is recorded as “exhibiting blue fluorescence”. Further, the “blue fluorescence of microcapsules (DiFMU from dephosphorylation of DiFMUP by PTPIB)” value in data set [3] (Example 1, two emulsions mixed 1:1000 to 1:1) is recorded as “also show blue fluorescence”; in data set [3] (Example 2, mixtures added sequentially to one oil phase), “also show blue fluorescence”.
As to `O=C(O)CN(CC(=O)O)Cc1cc2c(cc1O)Oc1cc(O)c(CN(CC(=O)O)CC(=O)O)cc1C21OC(=O)c2ccccc21` [calcein], the exchange between microdroplets/compartments result in data set [1] is recorded as “No exchange”.
